Read-outs that look alike come from different tables or passages of the source.
Key:
[1] = Stability of the selected isoflavones in transport buffer (PBS+); format: physicochemical; details: three hours of incubation
Procedure: The transport buffer (PBS^+) used in the Caco-2 monolayer model was prepared as previously described. […]. For stability tests at 37°C, samples were taken at 0, 15, 40, 75, 120 and 180 minutes. At each time interval, 300 μl of isoflavone solution was taken and then acidified with 50 μl of 0.425% phosphoric acid. All experiments were conducted in triplicates. The amount of selected isoflavones remained in PBS^+ was determined with high-performance liquid chromatography (HPLC).

[2] = Bidirectional transport in the Caco-2 monolayer model; format: in vitro ADME, human; details: human
Procedure: (§1) The Caco-2 cells were cultured and seeded in the Transwell® inserts (24 mm, 0.4 μm pore size, 4.71 cm^2, polycarbonate filter) according to our previous study. Cells used for the current study were from passage 35-40. The transport experiments were carried out at 23-25 days after seeding. Upon removal of culture medium, the Transwells® were pre-equilibrated with PBS^+ at 37°C for 15 minutes. […] All Caco-2 transport studies were performed at least in triplicates. Procedure was similar to the A→B transport studies except for the donor side and the receiver side was reversed. […] Samples were taken from the receiver (apical) side at the same time points and at the end of the experiment from the donor (basolateral) side as mentioned for the A→B studies. The studies were also performed at least in triplicates. Samples obtained in the Caco-2 transport studies were acidified with 0.425% phosphoric acid at a sample to acid ratio of 150:25 (v/v). […] Waters 2695 separation modules and Waters 996 photodiode array detector were used in the HPLC analyses of the Caco-2 samples. A reversed-phase column (100 × 4.6 mm 5μ Apex ODS Symm, Jones Chromatography, USA) equipped with a guard column (7.5 × 4.6 mm 5μ Spherisorb® ODS-2 C18, Waters, USA]) was used for the analyses of all three isoflavones. In order to shorten sample-running time, three separated HPLC methods were used for each isoflavone. The apparent permeability coefficient, Papp (cm/s), was calculated as follows. Papp=dC∕dT×V/(A×Co) where dC/dT is the initial slope of the plot of cumulative isoflavone concentrations versus time; V is the volume of receiver chamber (ml); A is the apparent surface area of the monolayer; Co is the initial concentration in donor site (μmol/ml). In addition to Papp, the percentage of recovery was calculated for each transport study to determine the extent of absence of isoflavone, which may be due to cell uptake or metabolism of the selected isoflavones after passing through the Caco-2 cells. It was calculated as follows. Recovery%=Final amount (in μmole) of isoflavone in donor and receptor side∕Initial amount (in μmole) of isoflavone in donor side

Caco-2 monolayer = experiment: as above; format: in vitro ADME, human; details: for time at which detectable in receiver chambers: after being loaded, both directions
Procedure: as §1

[3] = Hydrolysis on incubation with rat intestinal microvilli preparations; format: in vitro ADME; details: 50 μM, 37°C, two hours, protein 0.43 mg/ml
Procedure: Male Sprague-Dawley rats, supplied by and bred at the Laboratory Animal Service Center at The Chinese University of Hong Kong, were housed in an air-conditioned room under a 12/12-hour light/dark cycle. The experiment was conducted after being approved by the Animal Ethics Committee of The Chinese University of Hong Kong.
Samples from the in vitro incubation studies were centrifuged at 16,000 × g (Eppendorf, Germany) for five minutes; 50 μl of the supernatant of the samples were obtained and injected into the HPLC for analysis. In order to monitor daidzin, puerarin and daidzein in a single run for the samples from the hydrolysis study, we modified the above HPLC method for simultaneous detection of the three compounds. The analytes were separated with an HPLC column (BDS reversed phase column, 25 cm × 4.6 mm id; 5 μm particle size, Thermo Hypersil, UK) and eluted by the linear gradient elution at a flow rate of 1 ml/min. The gradient started with 95% of water with 0.01% aqueous acetic acid (A) and 5% of ACN containing 0.01% acetic acid (B), changed linearly to 83% A and 17% B in 30 minutes; 70% A and 30% B in 30-40 minutes; 50% A and 50% B in 40-45 minutes; and then back to the initial composition in 15 minutes followed by ten minutes after equilibrium.

[4] = Partition coefficients (octanol/aqueous); format: physicochemical; details: read-out: partition coefficient D (LogD, octanol/aqueous)
Procedure: The aqueous solution (10 ml) containing individual isoflavones was mixed with octanol (3 ml). The mixtures were equilibrated in tube rotator for 24 hours followed by sampling from the aqueous layers and determining concentrations of the isoflavones by HPLC. The test was performed in triplicates for each isoflavone. The partition coefficients (D) at both pH7.4 and pH 6.8 were obtained through the following equation:
LogD=log(isoflavoneoctanolphase∕isoflavoneaqueousphase)

MRP = experiment: Basolateral-to-apical transport in Caco-2 monolayer in the presence of MK571 (MRP inhibitor); format: in vitro ADME, human; details: for lowering of B→A cumulative concentration versus without MK571: MK571 50 μM
Procedure: Procedure was similar to the A→B transport studies except for the donor side and the receiver side was reversed. Loading solution (2.6 ml) was added into the basolateral side and 1.5 ml of the blank PBS^+ was added to the apical side. Samples were taken from the receiver (apical) side at the same time points and at the end of the experiment from the donor (basolateral) side as mentioned for the A→B studies. The studies were also performed at least in triplicates.
The study was performed only for isoflavones that had shown a favorable B→A transport in the bi-directional transport studies. […] To investigate the influence of MRP on the efflux transport of the selected isoflavones, we preloaded 1.5 ml of MK571 (50 μM) at apical side and 2.6 ml of MK571 (50 μM) at the basolateral side respectively. The B→A transport experiments of the selected isoflavones in the presence of MK571 (50 μM) in the both apical and basolateral chambers were then performed following the method described above. The studies were performed in triplicates.

[5] = both directional transport studies
[6] = Caco-2, pH 6.8, Caco-2, pH6.8, mean ± SD (n = 3), read-out: Recovery Apical to basolateral
[7] = Caco-2, pH 6.8, Caco-2, pH6.8, mean ± SD (n = 3), read-out: Recovery Basolateral to apical

Compound	isoflavone remained in PBS+ ([1]; pH6.8, 37°C)	isoflavone remained in PBS+ ([1]; pH7.4, 37°C)	recovery ([2]; Caco-2, pH 6.8, Recovery Apical to basolateral)	recovery ([2]; Caco-2, pH 6.8, Recovery Basolateral to apical)	time at which detectable in receiver chambers (Caco-2 monolayer)	percentage of recoveries (Caco-2 monolayer; [5])	hydrolysis by rat intestinal microvilli preparations [3]	recovery [2, 6]	recovery [2, 7]	Papp B→A ([2]; pH 6.8, Caco-2, pH6.8, mean ± SD (n = 3), read-out: Papp Basolateral to apical)	logD at 24 h ([4]; pH 6.8, 24 hours equilibration)	logD at 24 h ([4]; pH 7.4, pH7.4, 24 hours equilibration)	time from which detectable in the receiver chamber (MRP; B→A, in the presence of MK571 50 μM)	lowering of B→A cumulative concentration versus without MK571 (MRP; at 180 minutes)	cumulative concentration in the receiver chamber (B→A) (MRP; at 180 minutes, MK571 50 μM in both chambers)	lowering of B→A cumulative concentration versus without MK571 (MRP; at 180 minutes, listed as daidzin)	recovery at 180 min (MRP; human, Caco-2, B→A transport in the absence and presence of MK571, read-out: percentages of recovery)	cumulative concentration in the receiver side (Caco-2 monolayer; at 180 minutes after apical loading)	cumulative concentration in the receiver side (Caco-2 monolayer; at 180 minutes after basal loading)	fraction permeable through the Caco-2 monolayer (Caco-2 monolayer; [5])
O=c1c(-c2ccc(O)cc2)coc2cc(O)ccc12 [Daidzein, daidzein]	95.50 ± 0.84%	97.73 ± 3.43%	83.1 ± 5.74%	84 ± 14.1%	15 min	about 83%	–	–	–	–	–	–	–	–	–	–	–	–	–	–
O=c1c(-c2ccc(O)cc2)coc2cc(O[C@@H]3O[C@H](CO)[C@@H](O)[C@H](O)[C@H]3O)ccc12 [Daidzin, daidzin]	108.66 ± 2.16%	108.11 ± 5.21%	–	–	–	–	completely hydrolyzed to daidzein	92.9 ± 1.77%	99.2 ± 2.55%	0.53 ×10⁻⁶ cm/s	0.34 ± 0.03	0.8 ± 0.03	90 min	50%	0.41 ± 0.02 µM	about 50%	> 90%	–	–	–
O=c1c(-c2ccc(O)cc2)coc2c([C@@H]3O[C@H](CO)[C@@H](O)[C@H](O)[C@H]3O)c(O)ccc12 [Puerarin, puerarin]	105.00 ± 2.72%	106.74 ± 4.20%	–	–	not being detectable until two hours	–	majority of puerarin remained unchanged	88.9 ± 7.03%	92.7 ± 8.09%	–	–	–	–	–	–	–	–	0.043 ± 0.006 µM	0.12 ± 0.02 µM	around 0.3%
